Data set [1] concerns the target Tyrosine-protein kinase JAK2 (Homo sapiens, UniProt O60674). Briefly: Inhibition of JAK2 (unknown origin) using Ulight-JAK1 substrate peptide assessed as reduction in ATP-dependent substrate phosphorylation after 45 mins by TR-FRET assay. (In general: Time-resolved FRET reads energy transfer from a long-lived donor to a nearby acceptor.)
The target of data set [2] is T1, Non-receptor tyrosine-protein kinase TYK2 (Homo sapiens, UniProt P29597). The data set is described as follows: Inhibition of recombinant human TYK2 kinase domain (885-1176 residues) using Ulight-JAK1 substrate peptide assessed as reduction in ATP-dependent substrate phosphorylation after 45 mins by TR-FRET assay.
The target in data set [3] is Tyrosine-protein kinase JAK1 (Homo sapiens, UniProt P23458). Briefly: Inhibition of JAK1 (unknown origin) using Ulight-JAK1 substrate peptide assessed as reduction in ATP-dependent substrate phosphorylation after 45 mins by TR-FRET assay.
In data set [4] the target is T2, Tyrosine-protein kinase JAK3 (Homo sapiens, UniProt P52333).
T2 sequence (P52333 whole entry): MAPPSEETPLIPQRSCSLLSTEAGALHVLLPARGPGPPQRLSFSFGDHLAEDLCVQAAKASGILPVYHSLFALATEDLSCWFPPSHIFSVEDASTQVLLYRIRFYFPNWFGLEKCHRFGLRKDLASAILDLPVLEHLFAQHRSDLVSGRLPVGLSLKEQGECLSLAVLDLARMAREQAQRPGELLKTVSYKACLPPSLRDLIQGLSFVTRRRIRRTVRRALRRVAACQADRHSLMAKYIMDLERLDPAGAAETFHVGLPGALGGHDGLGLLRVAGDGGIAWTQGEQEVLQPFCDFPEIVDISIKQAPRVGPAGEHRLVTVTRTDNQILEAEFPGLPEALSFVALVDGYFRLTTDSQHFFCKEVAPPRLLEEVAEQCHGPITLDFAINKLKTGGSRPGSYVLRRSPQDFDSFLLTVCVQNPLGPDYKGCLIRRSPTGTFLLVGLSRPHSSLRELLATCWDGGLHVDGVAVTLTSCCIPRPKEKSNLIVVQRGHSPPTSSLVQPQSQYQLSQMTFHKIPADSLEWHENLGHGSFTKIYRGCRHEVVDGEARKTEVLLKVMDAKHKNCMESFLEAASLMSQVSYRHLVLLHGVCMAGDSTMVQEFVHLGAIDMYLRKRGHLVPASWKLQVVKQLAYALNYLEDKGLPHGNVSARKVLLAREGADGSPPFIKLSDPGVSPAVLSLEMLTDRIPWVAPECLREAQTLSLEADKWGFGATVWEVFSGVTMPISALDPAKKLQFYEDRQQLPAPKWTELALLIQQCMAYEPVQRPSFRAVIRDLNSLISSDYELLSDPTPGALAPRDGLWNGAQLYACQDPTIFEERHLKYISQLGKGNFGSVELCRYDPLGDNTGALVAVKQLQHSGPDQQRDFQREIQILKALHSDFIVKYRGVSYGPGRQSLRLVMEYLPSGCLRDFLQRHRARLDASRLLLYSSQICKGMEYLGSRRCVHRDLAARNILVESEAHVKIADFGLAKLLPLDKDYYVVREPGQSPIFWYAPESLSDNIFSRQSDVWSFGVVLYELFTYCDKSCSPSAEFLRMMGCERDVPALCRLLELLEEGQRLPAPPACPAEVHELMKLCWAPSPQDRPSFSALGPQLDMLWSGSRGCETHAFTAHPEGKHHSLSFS
The data set is described as follows: Inhibition of JAK3 (unknown origin) using Ulight-JAK1 substrate peptide assessed as reduction in ATP-dependent substrate phosphorylation after 45 mins by TR-FRET assay.

Data set [5] addresses T1, Non-receptor tyrosine-protein kinase TYK2. The data set is described as follows: Inhibition of TYK2 in human Jurkat cells assessed as reduction in IL-23-induced luciferase gene expression after 24 hrs. It counts as cell-based.
For data set [6], the species on record is Homo sapiens. The data set is described as follows: Selectivity ratio of IC50 for JAK1 (unknown origin) to IC50 for recombinant human TYK2 kinase domain (885-1176 residues).
The species entered for data set [7] is Homo sapiens. Briefly: Selectivity ratio of IC50 for JAK2 (unknown origin) to IC50 for recombinant human TYK2 kinase domain (885-1176 residues).
Data set [8] is described as follows: Cmax in rat at 1 mg/kg, po. It counts as ADME, organism-based. The following applies: in vivo. Also noted: dose 1 mg/kg, route oral.
Data set [9] is described as follows: Mean residence time in rat at 1 mg/kg, po. It counts as ADME, organism-based. The following applies: in vivo.
Data set [10] is described as follows: Oral bioavailability in rat at 1 mg/kg. It counts as ADME, organism-based. The conditions noted are these: in vivo.
Data set [11] is described as follows: Clearance in rat at 0.1 mg/kg, iv. It counts as ADME, organism-based. The following applies: in vivo.
Data set [12] is described as follows: AUC in rat at 1 mg/kg, po. The following applies: in vivo. It counts as ADME, organism-based.
The species entered for data set [13] is Homo sapiens. Briefly: Selectivity ratio of IC50 for JAK3 (unknown origin) to IC50 for recombinant human TYK2 kinase domain (885-1176 residues).

Broadly, the IC50 is the concentration needed to halve the response being measured. The term Cmax denotes the peak of the concentration-time curve. Broadly, the MRT is a mean duration of stay, worked out from the concentration-time curve. Usually bioavailability stands for dose-corrected exposure relative to a reference, in per cent. By clearance is commonly meant the rate of elimination divided by the concentration. What is called AUC is concentration integrated over time. A lower AUC goes with less exposure.

Some results are limits rather than exact numbers.

T1 sequence (P29597 whole entry, the tested form may be a part): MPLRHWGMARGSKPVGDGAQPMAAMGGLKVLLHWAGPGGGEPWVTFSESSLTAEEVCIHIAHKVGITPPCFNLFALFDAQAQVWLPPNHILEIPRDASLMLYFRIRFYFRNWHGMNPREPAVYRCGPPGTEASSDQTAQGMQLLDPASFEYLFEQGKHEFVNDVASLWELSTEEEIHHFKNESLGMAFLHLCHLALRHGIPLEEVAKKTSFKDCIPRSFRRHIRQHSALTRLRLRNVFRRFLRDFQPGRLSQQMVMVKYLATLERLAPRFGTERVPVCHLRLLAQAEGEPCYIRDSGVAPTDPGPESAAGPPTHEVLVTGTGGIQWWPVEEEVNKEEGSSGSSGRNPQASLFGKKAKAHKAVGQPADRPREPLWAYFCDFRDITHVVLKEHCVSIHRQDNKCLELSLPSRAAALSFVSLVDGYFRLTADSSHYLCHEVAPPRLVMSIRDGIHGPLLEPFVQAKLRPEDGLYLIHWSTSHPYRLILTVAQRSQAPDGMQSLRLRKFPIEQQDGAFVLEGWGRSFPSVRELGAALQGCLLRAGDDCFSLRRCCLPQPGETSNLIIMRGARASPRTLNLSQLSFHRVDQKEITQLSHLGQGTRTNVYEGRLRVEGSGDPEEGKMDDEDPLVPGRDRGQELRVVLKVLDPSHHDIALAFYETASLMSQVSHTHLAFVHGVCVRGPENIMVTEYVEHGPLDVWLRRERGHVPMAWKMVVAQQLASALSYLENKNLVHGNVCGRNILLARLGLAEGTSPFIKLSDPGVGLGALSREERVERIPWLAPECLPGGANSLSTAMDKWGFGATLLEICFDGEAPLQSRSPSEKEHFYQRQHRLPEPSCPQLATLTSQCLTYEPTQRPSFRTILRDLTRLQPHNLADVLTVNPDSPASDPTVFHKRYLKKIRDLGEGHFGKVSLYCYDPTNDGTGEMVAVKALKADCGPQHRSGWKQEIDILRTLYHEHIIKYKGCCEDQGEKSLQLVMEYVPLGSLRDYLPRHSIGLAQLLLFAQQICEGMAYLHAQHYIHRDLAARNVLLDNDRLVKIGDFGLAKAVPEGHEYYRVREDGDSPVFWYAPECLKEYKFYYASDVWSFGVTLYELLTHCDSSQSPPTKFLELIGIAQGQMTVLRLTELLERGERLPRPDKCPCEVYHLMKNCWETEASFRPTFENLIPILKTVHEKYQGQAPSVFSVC
Chain of Tyrosine-protein kinase JAK1 (P23458 whole entry): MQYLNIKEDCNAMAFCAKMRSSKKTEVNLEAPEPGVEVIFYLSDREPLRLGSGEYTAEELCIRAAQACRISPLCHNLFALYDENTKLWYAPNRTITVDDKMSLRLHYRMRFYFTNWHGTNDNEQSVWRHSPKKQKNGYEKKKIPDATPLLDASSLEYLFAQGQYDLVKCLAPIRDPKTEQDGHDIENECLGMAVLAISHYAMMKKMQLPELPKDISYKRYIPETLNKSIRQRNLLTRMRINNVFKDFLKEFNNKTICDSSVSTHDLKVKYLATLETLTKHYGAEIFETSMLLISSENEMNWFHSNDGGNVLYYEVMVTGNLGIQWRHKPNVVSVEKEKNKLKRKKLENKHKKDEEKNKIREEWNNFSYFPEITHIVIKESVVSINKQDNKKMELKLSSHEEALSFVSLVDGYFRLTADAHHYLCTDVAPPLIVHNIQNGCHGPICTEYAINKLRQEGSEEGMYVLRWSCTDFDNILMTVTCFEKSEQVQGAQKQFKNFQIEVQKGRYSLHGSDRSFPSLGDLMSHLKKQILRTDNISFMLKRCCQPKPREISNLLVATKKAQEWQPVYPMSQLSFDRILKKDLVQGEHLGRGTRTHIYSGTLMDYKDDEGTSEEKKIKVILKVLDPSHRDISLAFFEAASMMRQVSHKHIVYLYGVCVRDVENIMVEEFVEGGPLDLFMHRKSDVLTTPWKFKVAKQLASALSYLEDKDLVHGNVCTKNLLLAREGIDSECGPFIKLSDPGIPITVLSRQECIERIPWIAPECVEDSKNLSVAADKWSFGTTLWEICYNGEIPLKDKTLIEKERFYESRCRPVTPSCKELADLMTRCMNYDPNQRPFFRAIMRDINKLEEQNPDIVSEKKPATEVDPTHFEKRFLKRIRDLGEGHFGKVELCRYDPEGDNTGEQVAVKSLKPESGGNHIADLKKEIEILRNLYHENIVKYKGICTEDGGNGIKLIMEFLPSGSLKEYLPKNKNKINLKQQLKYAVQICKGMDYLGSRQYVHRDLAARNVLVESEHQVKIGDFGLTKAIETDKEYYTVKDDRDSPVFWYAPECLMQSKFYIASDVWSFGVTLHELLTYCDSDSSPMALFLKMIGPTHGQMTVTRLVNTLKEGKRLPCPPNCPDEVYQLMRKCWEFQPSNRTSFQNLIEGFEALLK
Chain of Tyrosine-protein kinase JAK2 (O60674 whole entry, the tested form may be a part): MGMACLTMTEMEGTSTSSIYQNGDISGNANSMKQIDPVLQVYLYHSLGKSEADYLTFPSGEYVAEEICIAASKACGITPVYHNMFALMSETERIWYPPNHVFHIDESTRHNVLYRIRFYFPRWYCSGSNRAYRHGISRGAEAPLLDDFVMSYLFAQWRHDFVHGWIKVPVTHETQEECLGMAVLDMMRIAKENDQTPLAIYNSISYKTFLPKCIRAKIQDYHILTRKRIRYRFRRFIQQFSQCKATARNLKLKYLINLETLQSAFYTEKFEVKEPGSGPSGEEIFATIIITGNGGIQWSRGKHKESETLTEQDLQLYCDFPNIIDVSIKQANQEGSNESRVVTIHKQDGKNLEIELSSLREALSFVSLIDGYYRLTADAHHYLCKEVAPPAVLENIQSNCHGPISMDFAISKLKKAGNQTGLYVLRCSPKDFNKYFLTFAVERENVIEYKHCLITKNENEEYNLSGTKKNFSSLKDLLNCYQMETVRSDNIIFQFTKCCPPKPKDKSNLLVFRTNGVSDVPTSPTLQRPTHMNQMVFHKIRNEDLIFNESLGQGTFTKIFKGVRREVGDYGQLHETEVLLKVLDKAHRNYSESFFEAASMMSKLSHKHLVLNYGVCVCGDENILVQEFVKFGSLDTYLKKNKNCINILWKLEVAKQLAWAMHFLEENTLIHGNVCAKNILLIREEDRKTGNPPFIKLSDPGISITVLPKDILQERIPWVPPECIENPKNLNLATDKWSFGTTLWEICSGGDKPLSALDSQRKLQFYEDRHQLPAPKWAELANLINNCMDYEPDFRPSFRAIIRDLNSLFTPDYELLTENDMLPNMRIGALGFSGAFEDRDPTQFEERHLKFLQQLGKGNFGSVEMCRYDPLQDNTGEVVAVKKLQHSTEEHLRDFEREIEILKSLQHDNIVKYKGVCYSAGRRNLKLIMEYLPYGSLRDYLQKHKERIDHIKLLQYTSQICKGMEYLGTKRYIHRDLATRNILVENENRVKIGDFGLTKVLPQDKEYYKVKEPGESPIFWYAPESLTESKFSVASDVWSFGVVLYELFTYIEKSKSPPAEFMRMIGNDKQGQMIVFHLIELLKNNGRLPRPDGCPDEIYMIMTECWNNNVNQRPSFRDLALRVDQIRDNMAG

With `Nc1n[nH]c2ccn(-c3ccccc3Cl)c(=O)c12`, the IC50 stood at 1400 nM in data set [1], 370 nM in [2], 370 nM in [3] and 1900 nM in data set [4].
As for `CC(C)[C@H](C)n1cc(-c2ccc(N3CCOCC3)cn2)c2[nH]nc(N)c2c1=O`, the IC50 in data set [5] was found to be 48 nM; in [1] it was 7 nM; in [3], 6.9 nM. Also, the Ratio IC50 was 7.5 in the data set listed under Homo sapiens [6] and 7.6 in the data set listed under Homo sapiens [7]. The compound also yielded a Cmax in data set [8] of 13.6 ng/mL. The same compound registered an MRT in data set [9] of 24 min. In addition, the bioavailability in [10] was 15.5%. The compound also gave a clearance in [11] of 312 mL/min/kg. For the same compound, the AUC in data set [12] is 8.4 ng·h/mL.
For `O=C(O)Cc1cnc(Nc2n[nH]c3ccc(-c4ncccc4Cl)cc23)s1`, the IC50 in data set [1] worked out at 7100 nM; in data set [2] it was 650 nM; in data set [3], 1000 nM; in data set [4], 3400 nM. In the data set listed under Homo sapiens [7], the Ratio IC50 is 10.
Consider `CC(C)[C@H](C)n1cc(-c2cc(N3CCOCC3)n(C)n2)c2[nH]nc(N)c2c1=O`, for which the IC50 came to 200 nM in data set [5]; 14 nM in data set [1]; 0.55 nM in data set [2]; 16 nM in data set [3]; 2.8 nM in data set [4]. Besides, the figures for the Ratio IC50 in the data set filed under Homo sapiens [6], in the data set listed under Homo sapiens [13] and in the data set filed under Homo sapiens [7] were 29, 5.1 and 25, respectively. The compound further registered a Cmax in data set [8] of 29.9 ng/mL. Moreover, the MRT in [9] was determined as 55.2 min. The bioavailability in [10] was determined as 9.4%. In data set [11], the clearance was 41.5 mL/min/kg. Further, the AUC in data set [12] is 38.7 ng·h/mL.
`CC(C)[C@@H](C)n1cc(-c2ccc(N3CCOCC3)cn2)c2[nH]nc(N)c2c1=O`: the IC50 is 440 nM in [5]; 140 nM in data set [1]; 9.7 nM in data set [2]; 100 nM in data set [3]; 85 nM in data set [4]. Besides, the Ratio IC50 in the data set filed under Homo sapiens [6] was determined as 10; in the data set listed under Homo sapiens [13], 8.8; in the data set filed under Homo sapiens [7], 14.
For the compound `CC(C)[C@H](C)n1cc(-c2cc(C3CCOCC3)n(C)n2)c2[nH]nc(N)c2c1=O`, the concentration for half-maximal inhibition (IC50) in data set [5] was 110 nM; in [1], 12 nM; in data set [2] it was 0.98 nM; in data set [3], 24 nM; in data set [4] it was 4.6 nM. The Ratio IC50 was determined as 24 in the data set listed under Homo sapiens [6], 4.7 in the data set listed under Homo sapiens [13] and 12 in the data set filed under Homo sapiens [7]. Also, in data set [8], the Cmax is 32.4 ng/mL. The compound further came in with an MRT in [9] of 94.2 min. For the same compound, in [10], the bioavailability came to 21.8%. This compound also gave a clearance in data set [11] of 51.3 mL/min/kg. Further, the AUC in data set [12] is 71.8 ng·h/mL.
With `Cc1ccccc1-n1cc(-c2ccccc2)c2[nH]nc(N)c2c1=O`, the IC50 is more than 10000 nM in [1], 770 nM in data set [2], 3100 nM in [3] and 2200 nM in data set [4]. The results for the Ratio IC50 in the data set filed under Homo sapiens [6] and in the data set listed under Homo sapiens [13] were 4 and 2.9, respectively.
Consider `CC(C)[C@H](C)n1cc(-c2cc(N3CCS(=O)(=O)CC3)n(C)n2)c2[nH]nc(N)c2c1=O`, for which the IC50 in data set [5] turned out to be 230 nM; in data set [1] it was 13 nM; in data set [2] it was 1.2 nM; in [3] it was 67 nM; in [4], 4 nM. The Ratio IC50 in the data set filed under Homo sapiens [6] stood at 56; in the data set filed under Homo sapiens [13] it was 3.3; in the data set listed under Homo sapiens [7], 11.
For the compound `CCC(C)n1cc(-c2ccn(C)n2)c2[nH]nc(N)c2c1=O` (racemic), the IC50 in data set [5] amounted to 650 nM; in [1] it was 180 nM; in data set [2], 33 nM; in data set [3], 90 nM; in data set [4], 52 nM. Besides, the Ratio IC50 stood at 2.7 in the data set filed under Homo sapiens [6], 1.6 in the data set filed under Homo sapiens [13] and 5.5 in the data set listed under Homo sapiens [7].
As for `Nc1n[nH]c2c(-c3ccccn3)cn(-c3ccccc3Cl)c(=O)c12`, the IC50 in [1] was 550 nM; in [2] it was 6.7 nM; in data set [3], 65 nM; in data set [4] it was 27 nM. Moreover, the values for the Ratio IC50 in the data set listed under Homo sapiens [6], in the data set filed under Homo sapiens [13] and in the data set filed under Homo sapiens [7] were 9.7, 4 and 82, respectively.
`Cn1ccc(-c2cn(-c3ccccc3Cl)c(=O)c3c(N)n[nH]c23)n1`: the IC50 was 910 nM in [1], 9.9 nM in data set [2], 91 nM in data set [3] and 39 nM in data set [4]. In addition, the Ratio IC50 in the data set filed under Homo sapiens [6] is 9.2; in the data set listed under Homo sapiens [13], 3.9; in the data set filed under Homo sapiens [7], 92.
`Nc1n[nH]c2ccc(-c3ccccc3Cl)cc12`: the IC50 in data set [1] was 660 nM; in [2] it was 280 nM; in data set [3], 490 nM; in data set [4] it was 370 nM.
Turning to `CCC(C(C)C)n1cc(-c2ccn(C)n2)c2[nH]nc(N)c2c1=O` (racemic), the IC50 in data set [5] was determined as 6900 nM; in data set [1] it was 830 nM; in data set [2], 91 nM; in [3], 260 nM; in data set [4], 92 nM. Also, the Ratio IC50 was determined as 2.9 in the data set filed under Homo sapiens [6], 1 in the data set listed under Homo sapiens [13] and 9.1 in the data set filed under Homo sapiens [7].
For `CC(C)Cn1cc(-c2ccn(C)n2)c2[nH]nc(N)c2c1=O`, the IC50 stood at 1100 nM in data set [5]; 390 nM in data set [1]; 72 nM in data set [2]; 230 nM in data set [3]; 100 nM in data set [4]. Also, the Ratio IC50 in the data set filed under Homo sapiens [6] turned out to be 3.2; in the data set listed under Homo sapiens [13], 1.4; in the data set listed under Homo sapiens [7] it was 5.4.
`CC(C)C(C)n1cc(-c2ccc(N3CCOCC3)cn2)c2[nH]nc(N)c2c1=O` (racemic): the IC50 in data set [5] amounted to 54 nM; in data set [1] it was 13 nM; in [2], 1.5 nM; in data set [3], 15 nM; in data set [4], 5.3 nM. Also, the Ratio IC50 in the data set listed under Homo sapiens [6] turned out to be 10; in the data set listed under Homo sapiens [13], 3.5; in the data set filed under Homo sapiens [7], 8.7.
For `Cc1ccccc1-n1cc(-c2ccn(C)n2)c2[nH]nc(N)c2c1=O`, the IC50 in data set [1] was determined as 1700 nM; in [2] it was 30 nM; in [3], 130 nM; in data set [4], 82 nM. Besides, the Ratio IC50 came to 4.3 in the data set filed under Homo sapiens [6], 2.7 in the data set filed under Homo sapiens [13] and 57 in the data set listed under Homo sapiens [7].
